Measured values taken from patent publication US11414404B2, “Compounds for the treatment of BRAF-associated diseases and disorders” (Array BioPharma Inc., priority 2019, dated 2022).
pIC50: −log10 of the molar value. Counter-ions that a name gives are not always drawn. Like-named read-outs stand apart in the source and are kept apart here.

Tests used:
[1] = biological target: full-length FLAG-tagged B-Raf(V600E) (Homo sapiens (Human), UniProt P15056, V600E); experiment: BRAF V600E enzyme assay (TR-FRET competitive displacement of fluorescent tracer); assay type: binding
full-length FLAG-tagged B-Raf(V600E), sequence (P15056 whole entry V600E): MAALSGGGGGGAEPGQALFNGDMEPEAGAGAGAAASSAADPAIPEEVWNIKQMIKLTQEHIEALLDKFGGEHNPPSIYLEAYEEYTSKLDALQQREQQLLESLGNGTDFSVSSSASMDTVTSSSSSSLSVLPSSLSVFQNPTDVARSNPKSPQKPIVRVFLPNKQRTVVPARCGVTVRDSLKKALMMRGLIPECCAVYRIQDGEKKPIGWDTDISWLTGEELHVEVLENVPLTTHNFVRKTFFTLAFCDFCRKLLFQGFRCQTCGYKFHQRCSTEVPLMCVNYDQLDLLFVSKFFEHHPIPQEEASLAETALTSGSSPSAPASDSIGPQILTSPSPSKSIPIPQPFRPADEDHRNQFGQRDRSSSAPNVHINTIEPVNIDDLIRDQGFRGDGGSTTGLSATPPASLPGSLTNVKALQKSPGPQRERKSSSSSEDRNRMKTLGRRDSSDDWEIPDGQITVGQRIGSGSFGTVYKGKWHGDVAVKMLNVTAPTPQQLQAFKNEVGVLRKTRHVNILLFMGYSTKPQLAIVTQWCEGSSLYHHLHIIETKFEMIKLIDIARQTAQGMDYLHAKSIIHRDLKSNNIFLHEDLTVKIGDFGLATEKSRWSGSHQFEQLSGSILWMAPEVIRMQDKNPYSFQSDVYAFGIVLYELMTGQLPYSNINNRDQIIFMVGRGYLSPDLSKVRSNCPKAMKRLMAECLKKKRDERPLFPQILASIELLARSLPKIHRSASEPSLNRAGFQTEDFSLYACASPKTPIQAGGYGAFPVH
Excerpt: A competitive displacement assay was configured for B-Raf that monitors the amount of a fluorescently-tagged “tracer” bound to B-Raf via TR-FRET from an anti-tag Eu-labeled antibody also bound to B-Raf.
[formula] • where: • Xmax Average Uninhibited Controls • Xmin Average Background
A 4-parameter logistic model was the fit to the POC data for each compound.

[2] = biological target: BCRP (Homo sapiens (Human), UniProt Q9UNQ0); experiment: BCRP MDCKII permeability assay: efflux ratio; conditions: dog
BCRP, sequence (Q9UNQ0 whole entry, species assumed): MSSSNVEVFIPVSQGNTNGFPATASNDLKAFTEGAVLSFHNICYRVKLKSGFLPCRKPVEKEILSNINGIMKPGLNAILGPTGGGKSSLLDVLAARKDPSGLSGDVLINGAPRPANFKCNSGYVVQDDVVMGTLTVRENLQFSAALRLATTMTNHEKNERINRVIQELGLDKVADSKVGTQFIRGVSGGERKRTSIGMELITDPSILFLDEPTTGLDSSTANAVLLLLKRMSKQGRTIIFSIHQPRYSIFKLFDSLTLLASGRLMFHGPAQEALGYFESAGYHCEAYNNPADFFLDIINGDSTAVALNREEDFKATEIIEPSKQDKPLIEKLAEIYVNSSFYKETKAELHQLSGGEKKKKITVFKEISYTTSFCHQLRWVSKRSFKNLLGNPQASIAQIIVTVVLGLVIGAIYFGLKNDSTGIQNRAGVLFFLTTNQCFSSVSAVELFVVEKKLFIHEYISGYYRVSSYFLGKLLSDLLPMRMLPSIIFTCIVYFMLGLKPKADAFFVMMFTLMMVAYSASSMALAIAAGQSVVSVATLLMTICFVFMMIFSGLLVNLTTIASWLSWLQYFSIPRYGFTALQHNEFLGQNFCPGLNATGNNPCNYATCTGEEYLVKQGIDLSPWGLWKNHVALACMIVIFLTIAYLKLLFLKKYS
Procedure: (§1) BCRP transfected MDCKII cells were cultured and plated according to manufacturer's recommendations. Assay conditions included with and without the BCRP-specific inhibitor, K0143, at a concentration of 0.3 μM to ascertain the contribution of BCRP to the efflux value of the test compound.
(§2) Both positive and negative controls were used to assess functionality of P-gp or BCRP efflux in the assays. […] Final organic concentration in the assay was 1%. All dosing solutions contained 10 μM lucifer yellow to monitor LLC-PK1 or MDCKII cell monolayer integrity.
(§3) For the apical to basolateral determination (A to B), 75 μL of the test article in transport buffer were added to the apical side of the individual transwells and 250 μL of basolateral media, without compound or lucifer yellow, were added to each well. For the basolateral to apical determination (B to A), 250 μL of test article in transport buffer were added to each well and 75 μL transport buffer, without compound or lucifer yellow, were added to each transwell. All tests were performed in triplicate, and each compound was tested for both apical to basolateral and basolateral to apical transport. The plates were incubated for 2 hours on a Lab-Line Instruments Titer Orbital Shaker (VWR, West Chester, Pa.) at 50 rpm and 37° C. with 5% CO2. All culture plates were removed from the incubator and 50 μL of media were removed from the apical and basolateral portion of each well and added to 150 μL of 1 μM labetalol in 2:1 acetonitrile (acetonitrile): H2O, v/v.
(§4) These values were accepted when found to be below 2% for apical to basolateral and 5% basolateral to apical flux across the MDR1-transfected LLC-PK1 or BCRP-transfected MDCKII cell monolayers. The plates were sealed and the contents of each well analyzed by LC-MS/MS. The compound concentrations were determined from the ratio of the peak areas of the compound to the internal standard (labetalol) in comparison to the dosing solution.
(§5) The LC-MS/MS system was comprised of an HTS-PAL autosampler (Leap Technologies, Carrboro, N.C.), an HP1200 HPLC (Agilent, Palo Alto, Calif.), and a MDS Sciex 4000 Q Trap system (Applied Biosystems, Foster City, Calif.). […] The total run time, including re-equilibration, for a single injection was 1.2 minutes. Mass spectrometric detection of the analytes was accomplished using the ion spray positive mode.
(§6) An efflux ratio is calculated from the mean apical to basolateral (A−B) Papp data and basolateral to apical (B−A) Papp data: Efflux ratio=Papp(B−A)/Papp(A−B)

[3] = biological target: P-gp (MDR1) (Homo sapiens (Human), UniProt P08183); experiment: MDR1 LLC-PK1 permeability assay: efflux ratio; conditions: pig, LLC-PK1
P-gp (MDR1), sequence (P08183 whole entry, species assumed): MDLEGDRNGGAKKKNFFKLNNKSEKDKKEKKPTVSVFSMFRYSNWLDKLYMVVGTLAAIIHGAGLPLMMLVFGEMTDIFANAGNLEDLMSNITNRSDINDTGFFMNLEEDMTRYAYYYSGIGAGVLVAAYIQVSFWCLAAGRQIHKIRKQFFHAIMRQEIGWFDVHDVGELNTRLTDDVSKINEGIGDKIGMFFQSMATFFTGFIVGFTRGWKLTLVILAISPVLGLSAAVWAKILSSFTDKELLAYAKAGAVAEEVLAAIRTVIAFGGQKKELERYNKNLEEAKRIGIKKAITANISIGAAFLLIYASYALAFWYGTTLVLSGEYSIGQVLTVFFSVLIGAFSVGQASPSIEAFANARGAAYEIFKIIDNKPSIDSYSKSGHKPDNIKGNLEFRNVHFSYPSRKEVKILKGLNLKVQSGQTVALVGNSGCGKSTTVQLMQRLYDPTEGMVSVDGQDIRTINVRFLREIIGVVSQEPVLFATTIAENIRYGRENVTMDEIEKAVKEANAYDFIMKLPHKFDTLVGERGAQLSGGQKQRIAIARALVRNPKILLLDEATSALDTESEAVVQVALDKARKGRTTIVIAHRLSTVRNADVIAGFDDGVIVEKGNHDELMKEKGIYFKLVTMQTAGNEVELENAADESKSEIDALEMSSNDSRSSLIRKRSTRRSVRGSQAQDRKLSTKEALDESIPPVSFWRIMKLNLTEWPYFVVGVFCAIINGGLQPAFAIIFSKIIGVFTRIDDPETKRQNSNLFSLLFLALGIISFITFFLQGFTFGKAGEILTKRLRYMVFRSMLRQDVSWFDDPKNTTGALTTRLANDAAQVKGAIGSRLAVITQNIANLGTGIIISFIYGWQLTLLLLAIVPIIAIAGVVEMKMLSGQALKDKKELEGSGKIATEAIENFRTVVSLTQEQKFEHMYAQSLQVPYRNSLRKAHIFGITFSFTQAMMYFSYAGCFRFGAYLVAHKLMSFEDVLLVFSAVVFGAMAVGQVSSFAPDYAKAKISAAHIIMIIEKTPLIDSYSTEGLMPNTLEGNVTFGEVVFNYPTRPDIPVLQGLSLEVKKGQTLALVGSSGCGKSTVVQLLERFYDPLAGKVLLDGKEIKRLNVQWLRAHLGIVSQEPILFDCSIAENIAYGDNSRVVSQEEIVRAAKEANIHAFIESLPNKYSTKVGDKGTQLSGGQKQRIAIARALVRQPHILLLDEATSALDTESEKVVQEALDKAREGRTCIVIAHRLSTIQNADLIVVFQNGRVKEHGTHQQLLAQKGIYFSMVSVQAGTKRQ
Procedure: (§7) Both LLC-PK1 and MDR1 transfected LLC-PK1 cells were cultured and plated according to manufacturer's recommendations with the exception that the passage media contained only 2% fetal bovine serum to extend passage time out to seven days.
as §2, §3, §4, §5, §6

[4] = MDR1 LLC-PK1 and BCRP MDCKII permeability assay: permeability coefficient (Papp)
Procedure: as §7, §1, §2, §3, §4, §5
where Cd, V, t and C0 are the detected concentration (μM), the volume on the dosing side (mL); the incubation time (s) and the initial dosing concentration (μM), respectively. The calculations for Papp were made for each replicate and then averaged.

[5] = averaged IC50, 60 min at ambient temperature, 11-point dosing, top dose 10 μM

Row | SMILES | pIC50 [1, 5] | efflux ratio at 2 h, 1 µM [2] | efflux ratio at 2 h, 1 µM [3] | Papp at 2 h, 1 µM [4] | pIC50 [1]
1 | Cc1c(Nc2c(F)ccc(NS(=O)(=O)c3ccco3)c2Cl)ccc2ncn(C)c(=O)c12 [Example 20, N-(2-chloro-3-((3,5-dimethyl-4-oxo-3,4-dihydroquinazolin-6-yl)amino)-4-fluorophenyl)furan-2-sulfonamide] | 9.15 | 7.43 | 1.86 | 32.9 ×10⁻⁶ cm/s | –
2 | Cc1c(Nc2c(F)ccc(NS(=O)(=O)N3CCCC3)c2Cl)ccc2ncn(C)c(=O)c12 [Example 21, N-(2-chloro-3-((3,5-dimethyl-4-oxo-3,4-dihydroquinazolin-6-yl)amino)-4-fluorophenyl)pyrrolidine-1-sulfonamide] | 7.46 | 0.77 | 1.22 | 19.2 ×10⁻⁶ cm/s | –
3 | Cc1c(Nc2c(F)ccc(NS(=O)(=O)N3CC[C@@H](F)C3)c2Cl)ccc2ncn(C)c(=O)c12 [Example 22, (R)—N-(2-chloro-3-((3,5-dimethyl-4-oxo-3,4-dihydroquinazolin-6-yl)amino)-4-fluorophenyl)-3-fluoropyrrolidine-1-sulfonamide] | 7.86 | 1.49 | 1.63 | 34.3 ×10⁻⁶ cm/s | –
4 | [2H]C([2H])([2H])n1cnc2ccc(Nc3c(F)ccc(NS(=O)(=O)CCC)c3Cl)c(C)c2c1=O [Example 24, N-(2-chloro-4-fluoro-3-((5-methyl-3-(methyl-d3)-4-oxo-3,4-dihydroquinazolin-6-yl)amino)phenyl)propane-1-sulfonamide] | – | 1.18 | 1.59 | 25.6 ×10⁻⁶ cm/s | 8.04
5 | Cc1c(Nc2c(F)ccc(NS(=O)(=O)c3cc(F)ccc3F)c2Cl)ccc2ncn(C)c(=O)c12 [Example 25, N-(2-chloro-3-((3,5-dimethyl-4-oxo-3,4-dihydroquinazolin-6-yl)amino)-4-fluorophenyl)-2,5-difluorobenzenesulfonamide] | 9.47 | 1.8 | 1.82 | 22.1 ×10⁻⁶ cm/s | –
6 | Cc1c(Nc2c(F)ccc(NS(=O)(=O)c3ccccn3)c2Cl)ccc2ncn(C)c(=O)c12 [Example 26, N-(2-chloro-3-((3,5-dimethyl-4-oxo-3,4-dihydroquinazolin-6-yl)amino)-4-fluorophenyl)pyridine-2-sulfonamide] | 7.31 | 6.46 | 2.04 | 30.2 ×10⁻⁶ cm/s | –
7 | COCCS(=O)(=O)Nc1ccc(F)c(Nc2ccc3ncn(C)c(=O)c3c2C)c1Cl [Example 27, N-(2-chloro-3-((3,5-dimethyl-4-oxo-3,4-dihydroquinazolin-6-yl)amino)-4-fluorophenyl)-2-methoxyethane-1-sulfonamide] | 6.68 | 2.09 | 1.4 | 34.5 ×10⁻⁶ cm/s | –
8 | CCCS(=O)(=O)Nc1ccc(F)c(Nc2ccc3ncn(C)c(=O)c3c2C)c1C#N [Example 28, N-(2-cyano-3-((3,5-dimethyl-4-oxo-3,4-dihydroquinazolin-6-yl)amino)-4-fluorophenyl)propane-1-sulfonamide] | 8.70 | 33 | 6.46 | 26.8 ×10⁻⁶ cm/s | –
9 | CCCS(=O)(=O)Nc1ccc(F)c(Nc2ccc3ncn(Cc4ccccc4)c(=O)c3c2C)c1Cl [Example 29, N-(3-((3-benzyl-5-methyl-4-oxo-3,4-dihydroquinazolin-6-yl)amino)-2-chloro-4-fluorophenyl)propane-1-sulfonamide] | 6.76 | 0.87 | 1.61 | 12 ×10⁻⁶ cm/s | –
10 | CCCS(=O)(=O)Nc1ccc(F)c(Nc2ccc3ncn(CCOC)c(=O)c3c2C)c1Cl [Example 30, N-(2-chloro-4-fluoro-3-((3-(2-methoxyethyl)-5-methyl-4-oxo-3,4-dihydroquinazolin-6-yl)amino)phenyl)propane-1-sulfonamide] | 7.34 | 1.92 | 2.59 | 24.8 ×10⁻⁶ cm/s | –
11 | CCCS(=O)(=O)Nc1ccc(F)c(Nc2ccc3ncn(C4CC4)c(=O)c3c2C)c1Cl [Example 31, N-(2-chloro-3-((3-cyclopropyl-5-methyl-4-oxo-3,4-dihydroquinazolin-6-yl)amino)-4-fluorophenyl)propane-1-sulfonamide trifluoroacetate] | 7.60 | 1.64 | 1.59 | 24.5 ×10⁻⁶ cm/s | –
12 | CCCS(=O)(=O)Nc1ccc(F)c(Nc2ccc3ncn(-c4ccccc4)c(=O)c3c2C)c1Cl [Example 32, N-(2-chloro-4-fluoro-3-((5-methyl-4-oxo-3-phenyl-3,4-dihydroquinazolin-6-yl)amino)phenyl)propane-1-sulfonamide trifluoroacetate] | 7.03 | 1 | 0.86 | 15.6 ×10⁻⁶ cm/s | –
13 | CCCS(=O)(=O)Nc1ccc(F)c(Nc2ccc3ncn(C4CCC4)c(=O)c3c2C)c1Cl [Example 33, N-(2-chloro-3-((3-cyclobutyl-5-methyl-4-oxo-3,4-dihydroquinazolin-6-yl)amino)-4-fluorophenyl)propane-1-sulfonamide trifluoroacetate] | 7.62 | 1.33 | 1.2 | 21.9 ×10⁻⁶ cm/s | –
14 | CCCS(=O)(=O)Nc1ccc(F)c(Nc2ccc3ncn([C@@H]4CCOC4)c(=O)c3c2C)c1Cl [Example 34, (R)-N-(2-chloro-4-fluoro-3-((5-methyl-4-oxo-3-(tetrahydrofuran-3-yl)-3,4-dihydroquinazolin-6-yl)amino)phenyl)propane-1-sulfonamide trifluoroacetate] | 8.05 | 2.19 | 1.81 | 27.7 ×10⁻⁶ cm/s | –
15 | CCCS(=O)(=O)Nc1ccc(F)c(Nc2ccc3ncn([C@H]4CCOC4)c(=O)c3c2C)c1Cl [Example 35, (S)-N-(2-chloro-4-fluoro-3-((5-methyl-4-oxo-3-(tetrahydrofuran-3-yl)-3,4-dihydroquinazolin-6-yl)amino)phenyl)propane-1-sulfonamide trifluoroacetate] | 7.61 | 1.78 | 1.92 | 29.4 ×10⁻⁶ cm/s | –
16 | CCCS(=O)(=O)Nc1ccc(F)c(Nc2ccc3ncn(CC)c(=O)c3c2C)c1Cl [Example 37, N-(2-chloro-3-((3-ethyl-5-methyl-4-oxo-3,4-dihydroquinazolin-6-yl)amino)-4-fluorophenyl)propane-1-sulfonamide trifluoroacetate] | 8.26 | 0.87 | 0.94 | 29.9 ×10⁻⁶ cm/s | –
17 | CCCS(=O)(=O)Nc1ccc(F)c(Nc2ccc3ncn(CC4CC4)c(=O)c3c2C)c1Cl [Example 38, N-(2-chloro-3-((3-(cyclopropylmethyl)-5-methyl-4-oxo-3,4-dihydroquinazolin-6-yl)amino)-4-fluorophenyl)propane-1-sulfonamide] | 7.55 | 1.57 | 1.15 | 20.6 ×10⁻⁶ cm/s | –
18 | CCCS(=O)(=O)Nc1ccc(F)c(Nc2ccc3ncn(C4CCCC4)c(=O)c3c2C)c1Cl [Example 39, N-(2-chloro-3-((3-cyclopentyl-5-methyl-4-oxo-3,4-dihydroquinazolin-6-yl)amino)-4-fluorophenyl)propane-1-sulfonamide trifluoroacetate] | 7.28 | 1.33 | 1.29 | 14.2 ×10⁻⁶ cm/s | –
19 | CCCS(=O)(=O)Nc1ccc(Cl)c(Nc2ccc3ncn(C)c(=O)c3c2C)c1F [Example 40, N-(4-chloro-3-((3,5-dimethyl-4-oxo-3,4-dihydroquinazolin-6-yl)amino)-2-fluorophenyl)propane-1-sulfonamide] | 7.36 | 2.87 | 2.2 | 28.7 ×10⁻⁶ cm/s | –
20 | CCCS(=O)(=O)Nc1ccc(F)c(Nc2ccc3ncn(C)c(=O)c3c2C)c1C [Example 41, N-(3-((3,5-dimethyl-4-oxo-3,4-dihydroquinazolin-6-yl)amino)-4-fluoro-2-methylphenyl)propane-1-sulfonamide] | 5.55 | 3.28 | 2.79 | 29.8 ×10⁻⁶ cm/s | –
21 | Cc1c(Nc2cc(F)cc(NS(=O)(=O)CCCF)c2Cl)ccc2ncn(C)c(=O)c12 [Example 44, N-(2-chloro-3-((3,5-dimethyl-4-oxo-3,4-dihydroquinazolin-6-yl)amino)-5-fluorophenyl)-3-fluoropropane-1-sulfonamide] | 8.22 | 2.84 | 1.05 | 24.2 ×10⁻⁶ cm/s | –
22 | Cc1c(Nc2c(F)ccc(NS(=O)(=O)c3ccccc3)c2Cl)ccc2ncn(C)c(=O)c12 [Example 49, N-(2-chloro-3-((3,5-dimethyl-4-oxo-3,4-dihydroquinazolin-6-yl)amino)-4-fluorophenyl)benzenesulfonamide] | 8.40 | 0.97 | 1.24 | 30.7 ×10⁻⁶ cm/s | –
23 | CCCS(=O)(=O)Nc1ccc(F)c(Nc2ccc3ncn(-c4cccnc4)c(=O)c3c2C)c1Cl [Example 58, N-(2-chloro-4-fluoro-3-((5-methyl-4-oxo-3-(pyridin-3-yl)-3,4-dihydroquinazolin-6-yl)amino)phenyl)propane-1-sulfonamide] | 7.45 | 1.93 | 2.26 | 27.6 ×10⁻⁶ cm/s | –
